Experimental findings from patent US20230067277A1, “ANALOGUES OF MYCOSPORINE-LIKE AMINO ACID AND USE THEREOF AS SUNSCREENS” (BASF SE, priority 2020, published 2023) are described below.

Holding throughout (assay type): physicochemical
The nature of series [1]: Solubility test in cosmetic solvents and water. The following applies: for solubility: % m/V; for precipitation visible after: addition to the respective solvent. As for the experimental part: The solubility of Compounds A to D was tested, wherein the addition of Compound A and B to the respective solvent had been stopped after 50% m/V. In case of Compound C and D, a precipitation after about 1% m/V had been visible. The respective pH-values (see Table 1) had been measured of the final solution or suspension, respectively.

A short description of series [2]: Specific extinction coefficient (UV/VIS spectrophotometer). The following applies: for E (1%, 1 cm), maximum absorbance: d=1 cm, 250 nm to 500 nm. As for the experimental part: The specific extinction coefficient of Compounds A to D was measured using a Perkin Elmer Lambda 650 UV/VIS Spectrophotometer. A stock solution of concentration c=1 mM of the UV-absorber was prepared in a 100 ml volumetric flask using either buffer or ethanol. Dilution steps followed in order to adjust the concentration, such that the extinction E at optical pathlength d=1 cm will be 1.0±0.5. UV spectrum was determined in a cuvette of an optical pathlength of d=1 cm at 250 nm to 500 nm. With the Beer-Lambert law one obtains the molar decadic extinction coefficient at any wavelength with: The respective specific extinction E %1.1 cm can be obtained via the following equation: […] where M=molecular weight of the UV-absorber. A di-sodium hydrogen phosphate/potassium dihydrogen phosphate buffer (ordering number 1.09439.1000) or ethanol (ordering number 1.00983.2511), each purchased from Merck was used.

The nature of series [3]: Incorporation of UV filter into water phase of cosmetic formulation. The conditions noted are these: 2.00 in Formulations 1, 2 and 4; pH 7-8. On the procedure:
Formulations 1 to 4 and a Placebo formulation were manufactured as follows. Part A and part B (see Table 3) were prepared separately and heated to 75-80° C. Under increasing stirring, part B was incorporated to part A and homogenized with Ultra Turrax for 20 sec. at 11000 rpm. The mixture was let cooled down to rt under stirring and part C was added. At rt pH 7-8 was adjusted with NaOH.

[4] abbreviates: Water, addition of Compound A and B stopped after 50% m/V.
[5] abbreviates: cosmetic solvent Cetiol Ultimate.

Turning to `CC1=C(NCCOCCO)CCC/C1=N\CCOCCO.Cl` [Compound A, (E)-2-(2-hydroxyethoxy)-N-(3-((2-(2-hydroxyethoxy)ethyl)amino)-2-methylcyclohex-2-en-1-ylidene)ethan-1-aminium chloride], in series [1] (Water), the “pH-value of the final solution or suspension” value (shortened to “pH-value”) is listed as “(pH 6)”. Further, the solubility in series [1] (setting [4]) is above 50.0%; in series [1] (cosmetic solvent Cetiol AB), “insoluble”; in series [1] (setting [5]), “insoluble”; in series [1] (cosmetic solvent Myritol 318), “insoluble”. Also, the “E (1%, 1 cm), maximum absorbance” value in series [2] (buffer pH7 (phosphate buffer)) came to 943. Also, the “incorporation of UV filter into the water phase in sufficiently high concentrations” value (“incorporation” for short) in series [3] was “could be incorporated into the water phase in sufficiently high concentrations”.
Turning to `CC1=C(NCCO)CCC/C1=N\CCO.Cl` [Compound B, (E)-2-hydroxy-N-(3-((2-hydroxyethyl)amino)-2-methylcyclohex-2-en-1-ylidene)ethan-1-aminium chloride], the “pH-value” value in series [1] (Water) was “(pH 6)”. In addition, the solubility is reported as above 50.0% in series [1] (setting [4]), “insoluble” in series [1] (cosmetic solvent Cetiol AB), “insoluble” in series [1] (setting [5]) and “insoluble” in series [1] (cosmetic solvent Myritol 318). Also, in series [2] (FIG. 1), the “specific extinction coefficient / absorbance, comparison among Compounds A to D (FIG. 1)” value is recorded as “highest specific extinction coefficient”. The “E (1%, 1 cm), maximum absorbance” value in series [2] (buffer pH7 (phosphate buffer)) is 1725. Besides, the “incorporation” value in series [3] was “could be incorporated into the water phase in sufficiently high concentrations”.
On to `COc1ccc(/N=C2\CCC(Nc3ccc(OC)cc3)=C2C)cc1.Cc1ccc(S(=O)(=O)O)cc1` [Compound C, (E)-4-methoxy-N-(3-((4-methoxyphenyl)amino)-2-methylcyclopent-2-en-1-ylidene)benzenaminium 4-methylbenzenesulfonate], for which the “pH-value” value in series [1] (Water) is given as “(pH 7)”. In addition, the solubility in series [1] (setting [4]) is recorded as below 1.0%; in series [1] (cosmetic solvent Cetiol AB) it was below 1.2%; in series [1] (setting [5]), below 1.0%; in series [1] (cosmetic solvent Myritol 318), below 1.0%. The precipitation visible after entry in series [1] is recorded as “about 1 % m/V”. In addition, the “E (1%, 1 cm), maximum absorbance” value in series [2] (in EtOH) worked out at 737.
`CC1=C(Nc2ccccc2Br)CC/C1=N\c1ccccc1Br.Cc1ccc(S(=O)(=O)O)cc1` [Compound D, (E)-2-bromo-N-(3-((2-bromophenyl)amino)-2-methylcyclopent-2-en-1-ylidene)benzenaminium 4-methylbenzenesulfonate]: the “pH-value” value in series [1] (Water) is reported as “(pH 7)”. Moreover, the solubility in series [1] (setting [4]) is below 1.0%; in series [1] (cosmetic solvent Cetiol AB), below 1.2%; in series [1] (setting [5]), below 1.0%; in series [1] (cosmetic solvent Myritol 318), below 1.0%. Also, the precipitation visible after entry in series [1] was “about 1 % m/V”. The “E (1%, 1 cm), maximum absorbance” value in series [2] (in EtOH) was 659. Also, in series [3], the “incorporation” value is reported as “not been possible to solve”.
